The source of these data is paper PMC8228597, “Asperflaloids A and B from Aspergillus flavipes DZ-3, an Endophytic Fungus of Eucommia ulmoides Oliver” (Molecules, 2021).

A short description of experiment [1]: DPPH radical scavenging test (antioxidant activity). Particulars: for pIC50: − means no activity. On the procedure:
The DPPH scavenging was assayed according to the reported method. The DPPH radical scavenging test was performed in 96-well microplates. Samples (compounds 1–12) were added to 180 μL (150 μmol/L) DPPH solution in EtOH at 20 μL solutions of different concentrations between 10 and 500 μM. After 30 min of light avoidance, absorbance at 517 nm using a microplate reader (Tecan Trading AG, Männedorf, Switzerland) was measured and the percentage of activity was calculated. All assays were performed in three replicates, and vitamin C was used as a positive control.
On the technique in general: Loss of DPPH colour is used to gauge radical scavenging.

Another experiment has as its target α-glucosidase (Saccharomyces cerevisiae, UniProt P53341). The experiment is described as follows: α-glucosidase inhibitory assay. In kind it is biochemical. Particulars: − means no activity. As for the experimental part: The α-glucosidase inhibitory effect was assessed as described in our recently published paper.

pIC50: −log10 of the molar value. Some results are limits rather than exact numbers.

Sequence of α-glucosidase (P53341 whole entry): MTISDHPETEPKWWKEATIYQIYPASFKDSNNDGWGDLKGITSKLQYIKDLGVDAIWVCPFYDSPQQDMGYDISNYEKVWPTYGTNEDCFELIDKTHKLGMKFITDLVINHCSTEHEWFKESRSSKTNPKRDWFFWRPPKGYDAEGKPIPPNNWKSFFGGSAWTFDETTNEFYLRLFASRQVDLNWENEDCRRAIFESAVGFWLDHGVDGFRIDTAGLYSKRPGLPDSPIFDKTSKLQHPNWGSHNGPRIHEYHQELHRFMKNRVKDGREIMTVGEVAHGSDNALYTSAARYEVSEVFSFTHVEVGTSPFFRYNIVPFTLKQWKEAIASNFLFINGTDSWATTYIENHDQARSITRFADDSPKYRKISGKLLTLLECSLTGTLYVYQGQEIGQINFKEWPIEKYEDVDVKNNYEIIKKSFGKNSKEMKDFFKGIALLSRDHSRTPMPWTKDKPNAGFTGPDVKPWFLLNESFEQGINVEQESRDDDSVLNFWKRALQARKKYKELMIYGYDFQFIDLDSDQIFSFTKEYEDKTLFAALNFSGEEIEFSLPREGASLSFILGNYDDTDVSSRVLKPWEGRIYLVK

For the compound `COC(=O)Cc1ccc(O)c(O)c1` [Compound 8, 3,4-dihydroxyphenylacetic acid methyl ester], in experiment [1], the “Antioxidant % Inhibition (500 μM)” value is recorded as 92% and the negative-log IC50 (pIC50) was 4.57.

With `C/C(=C/C(=O)NCCCC(=O)O)CCO` [Compound 6, fuscoatramide], in experiment [1], the “Antioxidant % Inhibition (500 μM)” value was under 50% and the pIC50 is under 3.30.

On to `COC(=O)Cc1ccc(O)cc1` [Compound 11, 4-hydroxy phenylacetic acid methyl ester], for which, in experiment [1], the “Antioxidant % Inhibition (500 μM)” value was under 50% and the pIC50 was under 3.30.

On to `O=C1O[C@H]([C@@H](O)CO)C(O)=C1O` [Vitamin C, vitamin C, reference compound], for which, in experiment [1], the “Antioxidant % Inhibition (500 μM)” value turned out to be 96.4% and the pIC50 was 4.57.

For the compound `O=C(O)[C@H](Cc1ccc(O)cc1)n1cnc2ccccc2c1=O` [Compound 1, Asperflaloid A], in experiment [1], the “Antioxidant % Inhibition (500 μM)” value is under 50% and the pIC50 is under 3.30.

Regarding phenylacetic acid [Compound 9], the pIC50 at α-glucosidase was under 3.00. Also, in experiment [1], the “Antioxidant % Inhibition (500 μM)” value was under 50% and the pIC50 was under 3.30.

Turning to `NC(=O)Cc1ccc(O)cc1` [Compound 10, 4-hydroxybenzeneacetamide], in experiment [1], the “Antioxidant % Inhibition (500 μM)” value was determined as 64.9% and the negative logarithm of the IC50 (pIC50) was 3.47.

Take `CC(=O)Nc1ccccc1C(=O)OC[C@@H](O)CO` [Compound 2, Asperflaloid B]: in experiment [1], the “Antioxidant % Inhibition (500 μM)” value was under 50% and the pIC50 was under 3.30.

Consider `N#CCc1ccc(O)cc1` [Compound 12, 4-hydroxyphenylacetonitrile], for which, in experiment [1], the “Antioxidant % Inhibition (500 μM)” value is reported as under 50% and the pIC50 is under 3.30.

As to `C=CC(C)(C)[C@]12C=C(OC)C(=O)N3/C(=C/c4c[nH]cn4)C(=O)N[C@@]31N(OC)c1ccccc12` [Compound 5, oxaline], in experiment [1], the “Antioxidant % Inhibition (500 μM)” value is reported as under 50% and the pIC50 was under 3.30.

As for `O=c1[nH]c(Cc2ccc(O)cc2)nc2ccccc12` [Compound 3, 2-(4-hydroxybenzyl)quinazolin-4(3H)-one], in experiment [1], the “Antioxidant % Inhibition (500 μM)” value is under 50% and the pIC50 was under 3.30.

On to `O=C(O)Cc1ccc(O)c(O)c1` [Compound 7, 3,4-dihydroxybenzeneacetic acid], for which, in experiment [1], the “Antioxidant % Inhibition (500 μM)” value was found to be 96.6% and the pIC50 is 4.84.

For the compound `O=C(O)c1ccccc1-n1ncnc1Cc1ccc(O)cc1` [Compound 4, penipanoid A], in experiment [1], the “Antioxidant % Inhibition (500 μM)” value is recorded as under 50% and the pIC50 was under 3.30.

One may read the pIC50 as the IC50 on a negative log10 scale, so that one unit is a factor of ten.
